Results published in patent US20240150362A1, “Substituted Pyrrolotriazines” (Molecure S.A., priority 2022, published 2024).
Where a name gives a salt, the structure may show the parent alone.

Target: T1, full-length USP7 (Homo sapiens, UniProt Q93009)
T1 construct: A 45 μl reaction volume containing full-length USP7 (0.5-1.0 nM)
Test: Enzymatic assay to determine % inhibition of USP7 activity at 1 μM test compound (Ubiquitin-Rhodamine 110 cleavage)
Type: biochemical
Details: 1 μM of the test compound, given where IC50 has not been determined yet, mean of two repetitions; for USP7 % inhibition: hydrochloride, 1 µM
Method: Enzymatic Assay to Determine % Value of Inhibition […] Activity at 1 μM […]
A 45 μl reaction volume containing full-length USP7 (0.5-1.0 nM) in 50 mM HEPES pH 7.5, 150 mM NaCl, 2 mM DTT, 1 mg/ml BSA and 0.05% Tween20 (DUB assay buffer) was assembled in wells of 96 well half area black flat bottom plates. All test compounds were first dissolved to 30 mM stocks in DMSO and subsequently introduced to enzyme 15 min after USP7 incubation with DTT at room temperature. The final concentration of tested compounds was 1 μM. The enzymatic reaction was started by adding 0.5 μM Ubiquitin-Rhodamine 110 (final concentration) and allowed to proceed for 30-60 min at 25° C., 250 RPM shaking before Rhodamine fluorescence (485 nm excitation/535 nm emission) was measured using Tecan Spark M10 plate reader. Percentage of inhibition at 1 μM was determined by the mean of two repetitions for these concentrations using Microsoft Excel software.

T1 sequence (Q93009 whole entry): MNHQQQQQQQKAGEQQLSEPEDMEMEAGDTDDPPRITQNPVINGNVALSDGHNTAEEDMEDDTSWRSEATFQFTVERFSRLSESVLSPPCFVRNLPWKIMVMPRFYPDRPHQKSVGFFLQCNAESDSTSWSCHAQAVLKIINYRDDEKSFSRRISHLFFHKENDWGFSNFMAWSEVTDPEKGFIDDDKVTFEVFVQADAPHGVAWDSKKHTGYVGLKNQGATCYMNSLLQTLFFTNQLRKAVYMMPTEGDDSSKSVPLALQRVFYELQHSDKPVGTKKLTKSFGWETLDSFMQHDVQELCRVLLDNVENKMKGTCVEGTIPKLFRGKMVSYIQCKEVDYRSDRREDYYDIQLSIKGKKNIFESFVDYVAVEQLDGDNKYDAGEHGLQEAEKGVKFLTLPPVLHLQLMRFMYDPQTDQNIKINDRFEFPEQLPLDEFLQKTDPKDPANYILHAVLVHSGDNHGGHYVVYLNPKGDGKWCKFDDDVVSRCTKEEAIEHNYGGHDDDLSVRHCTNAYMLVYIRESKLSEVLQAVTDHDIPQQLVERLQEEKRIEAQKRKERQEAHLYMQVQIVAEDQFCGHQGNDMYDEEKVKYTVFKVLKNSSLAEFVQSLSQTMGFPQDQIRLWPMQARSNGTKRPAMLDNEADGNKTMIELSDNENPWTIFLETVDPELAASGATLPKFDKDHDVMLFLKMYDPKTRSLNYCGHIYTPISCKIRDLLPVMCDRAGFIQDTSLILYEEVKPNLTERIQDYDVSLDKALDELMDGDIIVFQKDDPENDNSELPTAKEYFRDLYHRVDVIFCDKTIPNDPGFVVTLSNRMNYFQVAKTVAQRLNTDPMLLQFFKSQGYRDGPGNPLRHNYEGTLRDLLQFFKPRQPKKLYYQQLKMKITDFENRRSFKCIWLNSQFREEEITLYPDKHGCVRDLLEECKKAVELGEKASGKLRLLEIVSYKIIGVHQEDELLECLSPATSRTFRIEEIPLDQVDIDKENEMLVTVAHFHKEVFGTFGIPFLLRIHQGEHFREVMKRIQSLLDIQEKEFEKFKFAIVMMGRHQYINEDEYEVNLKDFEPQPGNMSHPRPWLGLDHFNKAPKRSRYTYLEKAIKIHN

CN1CCOC(Cc2c(F)cc(Cl)cc2-c2ncnn3cc(Cn4c(=O)ccn(C)c4=O)cc23)C1 (racemic) [Example 103, 3-((4-(5-chloro-3-fluoro-2-((4-methylmorpholin-2-yl)methyl)phenyl)pyrrolo[2,1-f][1,2,4]triazin-6-yl)methyl)-1-methylpyrimidine-2,4(1H,3H)-dione hydrochloride]
inhibition at 1 µM: 20 to 49%

O=C1CN2CCC[C@H]2C(=O)N1Cc1cc2c(-c3cc(Cl)cc4ccn(C[C@@H]5CNCCO5)c34)ncnn2c1 (single isomer, unassigned) [Example 31, dihydrochloride]
inhibition at 1 µM: 50 to 70%

Cc1cc(Cl)cc(-c2ncnn3cc(CN4C(=O)C5C(C4=O)C5(C)C)cc23)c1CC1CNCC(CF)O1 (single isomer, unassigned) [Example 43, 3-((4-(5-chloro-2-((6-(fluoromethyl)morpholin-2-yl)methyl)-3-methylphenyl)pyrrolo[2,1-f][1,2,4]triazin-6-yl)methyl)-6,6-dimethyl-3-azabicyclo[3.1.0]hexane-2,4-dione hydrochloride]
inhibition at 1 µM: 20 to 49%

Cc1cc(Cl)cc(-c2ncnn3cc(CN4C(=O)C5C(C4=O)C5(C)C)cc23)c1OC(C)C1CCNCC1.Cl (single isomer, unassigned) [Example 56, 3-((4-(5-chloro-3-methyl-2-(1-(piperidin-4-yl)ethoxy)phenyl)pyrrolo[2,1-f][1,2,4]triazin-6-yl)methyl)-6,6-dimethyl-3-azabicyclo[3.1.0]hexane-2,4-dione hydrochloride]
USP7 % inhibition: B* (B*: 50-70% inhibition)

Cc1cc(Cl)cc(-c2ncnn3cc(CN4C(=O)C5C(C4=O)C5(C)C)cc23)c1OC(C)C1CCNCC1.Cl (single isomer, unassigned) [Example 57, 3-((4-(5-chloro-3-methyl-2-(1-(piperidin-4-yl)ethoxy)phenyl)pyrrolo[2,1-f][1,2,4]triazin-6-yl)methyl)-6,6-dimethyl-3-azabicyclo[3.1.0]hexane-2,4-dione hydrochloride]
USP7 % inhibition: C* (C*: 20-49% inhibition)

Cc1cc(Cl)cc(-c2ncnn3cc(CN4C(=O)C5C(C4=O)C5(C)C)cc23)c1OCC1(C)CCCNC1 (single isomer, unassigned) [Example 74, 3-((4-(5-chloro-3-methyl-2-((3-methylpiperidin-3-yl)methoxy)phenyl)pyrrolo[2,1-f][1,2,4]triazin-6-yl)methyl)-6,6-dimethyl-3-azabicyclo[3.1.0]hexane-2,4-dione hydrochloride]
inhibition at 1 µM: 50 to 70%

Cc1cc(Cl)cc(-c2ncnn3cc(CN4C(=O)C5C(C4=O)C5(C)C)cc23)c1OC(C)[C@@H]1CNCCO1.Cl (single isomer, unassigned) [Example 76]
USP7 % inhibition: B* (B*: 50-70% inhibition)

Cc1cc(Cl)cc(-c2ncnn3cc(CN4C(=O)C5C(C4=O)C5(C)C)cc23)c1OC(C)[C@@H]1CNCCO1.Cl (single isomer, unassigned) [Example 77]
USP7 % inhibition: D* (D*: <20% inhibition)

Cc1cc(Cl)cc(-c2ncnn3cc(Cn4cc(F)c(=O)n(C)c4=O)cc23)c1C[C@@H]1CNCCO1 (single isomer, unassigned) [Example 98, hydrochloride]
inhibition at 1 µM: < 20%

Cc1cc(Cl)cc(-c2ncnn3cc(CN4C(=O)CN(C)C4=O)cc23)c1C[C@@H]1CNCCO1 (single isomer, unassigned) [Example 99, hydrochloride]
inhibition at 1 µM: > 70%

Cc1cc(Cl)cc(-c2ncnn3cc(Cn4c(=O)ccn(C)c4=O)cc23)c1C[C@H]1CNCCO1 (single isomer, unassigned) [Example 100, hydrochloride]
inhibition at 1 µM: 20 to 49%

C[C@H]1CNCC(Cc2c(F)cc(Cl)cc2-c2ncnn3cc(CN4C(=O)CN(C)CC4=O)cc23)O1 (single isomer, unassigned) [Example 119, hydrochloride]
inhibition at 1 µM: 20 to 49%

C[C@H]1CNCC(Cc2c(F)cc(Cl)cc2-c2ncnn3cc(Cn4c(=O)ccn(C)c4=O)cc23)O1 (single isomer, unassigned) [Example 120, hydrochloride]
inhibition at 1 µM: > 70%

Cc1cc(Cl)cc(-c2ncnn3cc(Cn4c(=O)cc[nH]c4=O)cc23)c1CC1CNC[C@H](C)O1 (single isomer, unassigned) [Example 121, dihydrochloride]
inhibition at 1 µM: 50 to 70%

Cc1cc(Cl)cc(-c2ncnn3cc(Cn4c(=O)ccn(CC(=O)O)c4=O)cc23)c1C[C@@H]1CNCCO1 (single isomer, unassigned) [Example 125, hydrochloride]
inhibition at 1 µM: 20 to 49%

Cc1cc(Cl)cc(-c2ncnn3cc(CN4C(=O)C5C(C4=O)C5(C)C)cc23)c1O[C@@H]1CC[C@@H](C)NC1 (stereo partly drawn) [Example 3, 3-((4-(5-chloro-3-methyl-2-(((3R,6R)-6-methylpiperidin-3-yl)oxy)phenyl)pyrrolo[2,1-f][1,2,4]triazin-6-yl)methyl)-6,6-dimethyl-3-azabicyclo[3.1.0]hexane-2,4-dione hydrochloride]
inhibition at 1 µM: 20 to 49%

Cc1cc(Cl)cc(-c2ncnn3cc(CN4C(=O)C5C(C4=O)C5(C)C)cc23)c1OC1CCNCC1 (stereo not shown) [Example 4, 3-((4-(5-chloro-3-methyl-2-(piperidin-4-yloxy)phenyl)pyrrolo[2,1-f][1,2,4]triazin-6-yl)methyl)-6,6-dimethyl-3-azabicyclo[3.1.0]hexane-2,4-dione hydrochloride]
inhibition at 1 µM: 50 to 70%

CC1(C)C2C(=O)N(Cc3cc4c(-c5cc(C(F)(F)F)cc6ccn(C7CCNC7)c56)ncnn4c3)C(=O)C21 (stereo not shown) [Example 5, 6,6-dimethyl-3-((4-(1-(pyrrolidin-3-yl)-5-(trifluoromethyl)-1H-indol-7-yl)pyrrolo[2,1-f][1,2,4]triazin-6-yl)methyl)-3-azabicyclo[3.1.0]hexane-2,4-dione 2,2,2-trifluoroacetate]
inhibition at 1 µM: 20 to 49%

Cc1cc(Cl)cc(-c2ncnn3cc(CN4C(=O)C5C(C4=O)C5(C)C)cc23)c1O[C@@H]1CN[C@H](C(=O)O)C1 (stereo partly drawn) [Example 7, (2S,4S)-4-(4-chloro-2-(6-((6,6-dimethyl-2,4-dioxo-3-azabicyclo[3.1.0]hexan-3-yl)methyl)pyrrolo[2,1-f][1,2,4]triazin-4-yl)-6-methylphenoxy)pyrrolidine-2-carboxylic acid hydrochloride]
inhibition at 1 µM: < 20%

Cc1cc(Cl)cc(-c2ncnn3cc(CN4C(=O)C5C(C4=O)C5(C)C)cc23)c1C(=O)N1CC(F)(F)C1 (stereo not shown) [Example 8, 3-((4-(5-chloro-2-(3,3-difluoroazetidine-1-carbonyl)-3-methylphenyl)pyrrolo[2,1-f][1,2,4]triazin-6-yl)methyl)-6,6-dimethyl-3-azabicyclo[3.1.0]hexane-2,4-dione hydrochloride]
inhibition at 1 µM: 20 to 49%

Cc1cc(Cl)cc(-c2ncnn3cc(CN4C(=O)C5C(C4=O)C5(C)C)cc23)c1OCCN (stereo not shown) [Example 9, 3-((4-(2-(2-aminoethoxy)-5-chloro-3-methylphenyl)pyrrolo[2,1-f][1,2,4]triazin-6-yl)methyl)-6,6-dimethyl-3-azabicyclo[3.1.0]hexane-2,4-dione hydrochloride]
inhibition at 1 µM: 50 to 70%

Cc1cc(Cl)cc(-c2ncnn3cc(CN4C(=O)C5C(C4=O)C5(C)C)c(C)c23)c1O[C@H]1CCCNC1 (stereo partly drawn) [Example 12, 3-((4-(5-chloro-3-methyl-2-(((S)-piperidin-3-yl)oxy)phenyl)-5-methylpyrrolo[2,1-f][1,2,4]triazin-6-yl)methyl)-6,6-dimethyl-3-azabicyclo[3.1.0]hexane-2,4-dione hydrochloride]
inhibition at 1 µM: 50 to 70%

CCOC(=O)c1cc2c(-c3cc(Cl)cc(C)c3O[C@H]3CCCNC3)ncnn2c1 [Example 15, ethyl (S)-4-(5-chloro-3-methyl-2-(piperidin-3-yloxy)phenyl)pyrrolo[2,1-f][1,2,4]triazine-6-carboxylate hydrochloride]
inhibition at 1 µM: 20 to 49%

Cc1cc(Cl)cc(-c2ncnn3cc(C(=O)O)cc23)c1O[C@H]1CCCNC1 [Example 16, (S)-4-(5-chloro-3-methyl-2-(piperidin-3-yloxy)phenyl)pyrrolo[2,1-f][1,2,4]triazine-6-carboxylic acid hydrochloride]
inhibition at 1 µM: < 20%

Cc1cc(Cl)cc(-c2ncnn3cc(CO)cc23)c1O[C@H]1CCCNC1 [Example 17, (S)-(4-(5-chloro-3-methyl-2-(piperidin-3-yloxy)phenyl)pyrrolo[2,1-f][1,2,4]triazin-6-yl)methanol hydrochloride]
inhibition at 1 µM: < 20%

Cc1cc(Cl)cc(-c2ncnn3cc(C(N)=O)cc23)c1O[C@H]1CCCNC1 [Example 18, (S)-4-(5-chloro-3-methyl-2-(piperidin-3-yloxy)phenyl)pyrrolo[2,1-f][1,2,4]triazine-6-carboxamide hydrochloride]
inhibition at 1 µM: < 20%

CC1(C)C2C(=O)N(Cc3cc4c(-c5cc(C(F)(F)F)cc6ccn(CC7(O)CCNCC7)c56)ncnn4c3)C(=O)C21 (stereo not shown) [Example 19, 3-((4-(1-((4-hydroxypiperidin-4-yl)methyl)-5-(trifluoromethyl)-1H-indol-7-yl)pyrrolo[2,1-f][1,2,4]triazin-6-yl)methyl)-6,6-dimethyl-3-azabicyclo[3.1.0]hexane-2,4-dione hydrochloride]
inhibition at 1 µM: 50 to 70%

Cc1cc(Cl)cc(-c2ncnn3cc(CN4C(=O)C5C(C4=O)C5(C)C)cc23)c1O[C@@H]1CN[C@@H](C)C1 (stereo partly drawn) [Example 20, 3-((4-(5-chloro-3-methyl-2-(((3S,5S)-5-methylpyrrolidin-3-yl)oxy)phenyl)pyrrolo[2,1-f][1,2,4]triazin-6-yl)methyl)-6,6-dimethyl-3-azabicyclo[3.1.0]hexane-2,4-dione hydrochloride]
inhibition at 1 µM: 20 to 49%
